Patent US20080300225A1, “PESTICIDAL FORMULATION CONTAINING OXYMATRINE OR MATRINE” (Marrone Organic Innovations, priority 2007, published 2008)
Where “and” joins values, the source holds several entries; their conditions need not be identical. Identical values can stand only once. Like-named read-outs stand apart in the source and are kept apart here.

Test system: Armyworms (Spodoptera exigua)
Assay: Contact study on armyworm first instar larvae
Type: in vivo
Conditions: for mode of insecticidal action: contact exposure of first instar larvae
Source text: Contact Study of MOI 201 on Armyworms (Spodoptera exigua)
Objective: Observe the mode of action and the symptoms caused by 0.6% oxymatrine on larvae of armyworms, as well as to quantify the time required for the larvae to become paralyzed or dead.
Method: Larvae of beet armyworm were taken as first In-star stage and placed on a microscope slide under a stereomicroscope. A drop of the test product was delivered over them and the larvae were left to soak for 30 seconds. Excess liquid was absorbed with a paper towel and the larvae were observed under the microscope. The products tested were Spinosad at 0.3%, Permethrin at 1%, and 0.6% oxymatrine at 800× and 1000× dilutions. Time 1 indicates the time it took before the larva was unable to perform normal activities like crawling, feeding, etc. Time 2 is the additional time needed for complete elimination/death.

[1] = Spinosad at 0.3%, Permethrin at 1%, 30 s soak, average of 5 reps
[2] = Spinosad at 0.3%, Permethrin at 1%, 30 s soak, reps 1-5

Row | Compound | Time 1: time required for paralysis or convulsions, Average | period of time to affect the insect's basic functions | Time 2: time between paralysis and death, Average [1] | Time 2: time between paralysis and death, single replicate [2] | mode of insecticidal action | Time 1: time required for paralysis or convulsions, Average [1] | Time 1: time required for paralysis or convulsions, single replicate [2] | period of time to affect the insect's basic functions (text summary of Time 1, Spinosad 0.3%, Permethrin 1%, 0.6% oxymatrine at 800x and 1000x dilutions)
1 | CC1(C)C(C=C(Cl)Cl)C1C(=O)OCc1cccc(Oc2ccccc2)c1 (centres unmarked) [Permethrin] | 1.22 min | 1.2 min | 333.60 min | 447 min and 428 min and 397 min and 97 min and 299 min | work as contact insecticides |  |  | 
2 | Spinosad |  |  | 289.00 min | 146 min and 180 min and 363 min and 373 min and 383 min | work as contact insecticides | 6.99 min | 7.58 min and 8.46 min and 6.33 min and 6.4 min and 6.17 min | 7.0 min
